Measured values published in publication PMC6429159, “Evolution and Biological Evaluation of Matrinic Derivatives with Amantadine Fragments As New Anti-Influenza Virus Agents” (Molecules, 2019).
Where a name gives a salt, the structure may show the parent alone. Read-outs that look alike come from different tables or passages of the source.

Tests used:
[1] = system: influenza virus A/hanfang/359/95 (H3N2); experiment: organism not typed; format: cell-based; conditions: 50% virus-inhibitory concentration after 40 hr at 37 °C, MDCK cells; – = no anti-H3N2 activity at the maximum non-toxic concentration
[2] = system: influenza virus A/Fort Monmouth/1/1947 (H1N1); experiment: organism not typed; format: cell-based; conditions: MDCK cells, CPE
MDCK cells [3] = experiment: Cytotoxicity assay; format: cell-based; conditions: 50% cytotoxic concentration, 48 hr
Protocol: A three-fold dilution compound was added to cell monolayer, and the cells continued to be cultivated for 48 hr, and then the CPE was recorded. The TC50 value of each compound was calculated by the methods of Reed & Muench.

[4] = system: H3N2 virus non-structural protein 1 (NS1); experiment: Anti-H3N2 activity at the protein level, NS1 Western blot; format: cell-based, Influenza A virus; conditions: 40 μM, MDCK cells, MOI 0.003, 24 hr
IAV M2 = format: cell-based, Influenza A virus
[5] = Stability assay in whole blood; format: in vitro ADME, SD rats; conditions: 37 °C; for stability in whole blood (in words): in vitro
Protocol: The results hinted that 9f owned a good PK stability profile in blood, and it was chosen for the next investigation.
The fresh bloods were collected on the day of experiment from SD rats, and pre-warmed in a water bath at 37 °C. A concentration of 10 mM tested compound or enalapril stock solutions were prepared in DMSO, and then diluted with 45% MeOH/H2O to achieve […] dosing solutions. […] At the end of incubation, for each sample, […] water and […] of stop solution (200 ng·mL^−1 tolbutamide plus 20 ng·mL^−1 buspirone in acetonitrile) were immediately added to precipitate the protein, and centrifuged at 4000 rpm for 20 min. An aliquot of supernatant ([…]) was then extracted, mixed with […] H2O, and then shaken at 800 rpm for about 10 min before being submitted for a liquid chromatography-tandem mass […] (LC-MS/MS) analysis. The experiment was repeated twice.
Figure 3 The stability assessments of key compounds 9f and 9j in whole blood. […]

Kunming mice = conditions: for weight loss and behaviour: oral single dose 125, 250, 500 mg·kg^–1, seven days, compared to control; for median lethal dose (LD50): oral single dose, Kunming mice, monitored seven days
Protocol: The acute toxicity tests of the two key compounds 9f and 9j were performed in Kunming mice. Each compound was given orally in a single-dosing experiment at 125, 250, and 500 mg·kg^–1, respectively. Then, the mice were closely monitored for seven days.
Female Kunming mice with weights of 20.0 (±1.0 g) were fed with regular rodent chow, and housed in an air-conditioned room. The mice were randomly divided into different groups with 10 mice each. Each compound was given orally in a single-dosing experiment at 125, 250, or 500 mg·kg^−1, respectively. The mice were closely monitored for seven days. Body weight, as well as survival, was monitored.

MDCK cells [6] = conditions: lead 1, value of previous study; cited from earlier work

| Structure (SMILES) | IC50 [1] | IC50 [2] | TC50 (MDCK cells [3]) | stability in whole blood (in words) [5] | also measured |
| --- | --- | --- | --- | --- | --- |
| O=C(OCCCC[C@@H]1[C@H]2CCCN3CCC[C@@H](CN1S(=O)(=O)c1ccc(C(F)(F)F)cc1)[C@@H]23)C12CC3CC(CC(Br)(C3)C1)C2 [Compound 9c, 12N-p-Trifluoromethlybenzenesulfonylmatrinicbutyl-3’-bromoadamantane-1’-carboxylate hydrochloride] | 8.2 ± 2.07 µM | 27.5 ± 0.1 µM | 73.6 ± 4.3 µM |  |  |
| O=C(OCCCC[C@@H]1[C@H]2CCCN3CCC[C@@H](CN1S(=O)(=O)c1cccc(C(F)(F)F)c1)[C@@H]23)C12CC3CC(CC(Br)(C3)C1)C2 [Compound 9f, 12N-m-Trifluoromethlybenzenesulfonylmatrinicbutyl-3’-bromoadamantane-1’-carboxylate hydrochloride] | 7.2 ± 1.1 µM | 23.4 ± 1.5 µM | 75.7 ± 14.2 µM | high stability profile | H3N2 virus NS1 level [4]: significantly reduce; M2 level (IAV M2): significantly reduce; remaining rate of protype in whole blood ([5]; 60 min): 100%; remaining rate of protype in whole blood ([5]; 120 min): 97.9%; weight loss and behaviour (Kunming mice): neither significant weight loss nor behavioral abnormality; median lethal dose (LD50) (Kunming mice): higher than 500 mg·kg^–1 |
| CCCCC1C2CCCN3CCCC(CN1Cc1ccc(C(=O)O)cc1)C23 (centres unmarked) [Compound 1, 12N-p-carboxybenzyl matrinic butane] |  |  |  |  | TC50 (MDCK cells [6]): >540.5 µM |
| O=C(OCCCC[C@@H]1[C@H]2CCCN3CCC[C@@H](CN1S(=O)(=O)c1cccc(C(F)(F)F)c1)[C@@H]23)C12CC3CC(CC(C3)C1)C2 [Compound 9d, 12N-m-Trifluoromethlybenzenesulfonyl matrinic butyl adamantine-1’-carboxylate hydrochloride] | 5.9 ± 0.9 µM | 22.4 ± 1.3 µM | 54.9 ± 3.5 µM |  |  |
| CCOC(=O)[C@H](CCc1ccccc1)N[C@@H](C)C(=O)N1CCC[C@H]1C(=O)O [enalapril, (S)-N-[1-(ethoxycarbonyl)-3-phenylpropyl]-Ala-Pro maleate, reference compound] |  |  |  | hydrolyzed quickly |  |
| NC12CC3CC(CC(C3)C1)C2 [AH, amantadine hydrochloride, reference compound] | 3.25 ± 0.5 µM | 2.73 µM |  |  |  |
| O=C(CC1CC2CCC1C2)OCCCC[C@@H]1[C@H]2CCCN3CCC[C@@H](CN1S(=O)(=O)c1cccc(C(F)(F)F)c1)[C@@H]23 (some centres unmarked) [Compound 9j, 12N-m-Trifluoromethlybenzenesulfonyl matrinic butyl-2’-norbornane acetate hydrochloride] | 10.2 ± 1.8 µM | 22.6 ± 1.3 µM | 110.3 ± 18.5 µM | poor stability | H3N2 virus NS1 level [4]: significantly reduce; remaining rate of protype in whole blood ([5]; 30 min): 47.7%; remaining rate of protype in whole blood ([5]; 120 min): 1.3%; weight loss and behaviour (Kunming mice): neither significant weight loss nor behavioral abnormality; median lethal dose (LD50) (Kunming mice): higher than 500 mg·kg^–1 |
